Type in all cases: cell-based, human
Assay [1] deals with CD8+ T cells (HLA-A*2402 donors). The assay is described as follows: In vitro CTL induction with peptide-pulsed DCs (positive donor number). The note with it: HLA-A*2402, 9-mer peptides derived from INHBB; positive/total donors. In a few lines: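 Autologous CD8+ T cells from HLA-A*2402 and/or A*0201 donors stimulated with MMC-inactivated monocyte-derived DCs pulsed with 20 μg/ml peptide, at 1:20 DC:T with IL-7, then IL-2 (20 IU/ml); restimulated days 7 and 14. CTL tested day 21 on peptide-pulsed A24-LCL or T2 cells; reported as positive/total donors.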

The subject of assay [2] is CD8+ T cells (HLA-A*0201 donors). The assay is described as above. To be noted: HLA-A*0201, 9-mer peptides derived from INHBB; positive/total donors. In outline:
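Monocyte-derived DCs (GM-CSF/IL-4, 7 days) pulsed with 20 μg/ml peptide plus β2-microglobulin, MMC-inactivated, co-cultured 1:20 with autologous CD8+ T cells with IL-7, then IL-2; restimulated days 7 and 14. CTL activity tested against peptide-pulsed T2 cells on day 21; value = positive donors/total donors.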

For another assay, the system named is peptide-pulsed T2 cells. The assay is described as follows: IFN-gamma ELISPOT assay (positive wells). To be noted: HLA-A*0201, 9-mer peptides derived from INHBB; positive/total wells. In outline: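 CD8+ T cells from HLA-A*2402 and/or HLA-A*0201 donors were stimulated 1:20 with autologous monocyte-derived DCs pulsed with 20 µg/ml peptide plus β2-microglobulin, in IL-7, with IL-2 added, restimulated on days 7 and 14. On day 21, IFN-γ ELISPOT against peptide-pulsed T2 or A24-LCL cells (1×10^4/well) scored wells as positive, with CTL lines confirmed by ELISA.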

Here are results for 1 sequence from US8759481B2, “Peptide vaccines for cancers expressing tumor-associated antigens” (Oncotherapy Science, Inc., priority 2007, dated 2014).

For VQCDSCQEL, the positive donor number in assay [1] and in assay [2] was 0/1 in each case. Besides, the positive well number in the assay with peptide-pulsed T2 cells is 1/8.
